According to ChEMBL document CHEMBL1201862, “PubChem BioAssay data set” (2004):
“And” between values parts separate entries of the source, which are not always exact repeats. Equal values may be shown once.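 Cultured in 96-well plates, cells were exposed to test compound for 48 hours across five concentrations. GI50: concentration for 50% inhibition of growth.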 The source made the active and inactive calls. Cut-off read from the data, not from the text of the source: active = GI50 up to about 1.1 µM and inactive = higher.

Columns and labels:
Test in all cases: growth of human tumour cells (NCI), 48 h
786-0 = system: 786-0
CAKI-1 = system: CAKI-1
DU-145 = system: DU-145
HCT-116 = system: HCT-116
HOP-62 = system: HOP-62
K562 = system: K562
MCF7 = system: MCF7
MDA-N = system: MDA-N
SK-MEL-2 = system: SK-MEL-2
SK-OV-3 = system: SK-OV-3
SN12C = system: SN12C
SNB-19 = system: SNB-19
U-251 = system: U-251
UACC-257 = system: UACC-257
UACC-62 = system: UACC-62
SK-MEL-5 = system: SK-MEL-5
SR = system: SR
TK-10 = system: TK-10
HOP-92 = system: HOP-92
Hs-578T = system: Hs-578T

Measured: GI50

Cc1cccc(N/C(Sc2ccccc2)=C(/C(Cl)=C(Cl)Cl)[N+](=O)[O-])c1
inactive: 786-0 16.9 µM | CAKI-1 19.9 µM | DU-145 20.5 µM | HCT-116 15.3 µM | HOP-62 20.3 µM | K562 20.3 µM | MCF7 29.3 µM | MDA-N 19.4 µM | SK-MEL-2 28.1 µM | SK-OV-3 20.5 µM | SN12C 15.3 µM | SNB-19 28.7 µM | U-251 15.4 µM | UACC-257 20.8 µM | UACC-62 20.3 µM

CC(=O)OC1COC(n2c(N)c(C#N)c(C)c(C#N)c2=S)C(OC(C)=O)C1OC(C)=O (stereo not drawn)
inactive: 786-0 > 100 µM | CAKI-1 > 100 µM | HOP-62 > 100 µM | K562 58.9 µM | MCF7 88.1 µM | MDA-N > 100 µM | SK-MEL-5 > 100 µM | SK-OV-3 > 100 µM | SN12C > 100 µM | SR > 100 µM and 54.1 µM | TK-10 > 100 µM | UACC-257 > 100 µM | UACC-62 66.4 µM

COc1c(-c2nc3ccc(N4CCN(C)CC4)nc3[nH]2)cc(OC)c2c1nc(CCl)n2C
inactive: 786-0 17.9 µM | CAKI-1 16.6 µM | DU-145 25.4 µM | HCT-116 32.2 µM | HOP-62 21.4 µM | HOP-92 22.8 µM | Hs-578T 32.9 µM | K562 29 µM | MDA-N 30.5 µM | SK-MEL-2 11.6 µM | SK-OV-3 28.8 µM | SN12C 20.9 µM | SNB-19 28.2 µM | U-251 12.2 µM | UACC-257 22.6 µM | UACC-62 10.4 µM

C=C(Br)N(CC)CC
inactive: 786-0 > 100 µM | CAKI-1 > 100 µM | HCT-116 > 100 µM | HOP-62 > 100 µM | HOP-92 > 100 µM | K562 > 100 µM | SK-MEL-2 > 100 µM | SK-MEL-5 > 100 µM | SK-OV-3 > 100 µM | SN12C > 100 µM | SNB-19 > 100 µM | SR > 100 µM | TK-10 > 100 µM | U-251 > 100 µM | UACC-257 > 100 µM | UACC-62 > 100 µM

CCC12CCCN(Cc3ccccc3)C1c1c(n(C)c3ccccc13)CC2 (stereo not drawn)
inactive: 786-0 > 253 µM | CAKI-1 > 253 µM | HCT-116 141 µM | HOP-62 > 253 µM | HOP-92 110 µM | K562 163 µM | SK-MEL-2 > 253 µM | SK-MEL-5 69.3 µM | SK-OV-3 > 253 µM | SN12C 149 µM | SNB-19 > 253 µM | SR 108 µM | TK-10 > 253 µM | U-251 247 µM | UACC-257 107 µM | UACC-62 230 µM

O=C(CSCC(=O)N/N=C/c1ccccc1)N/N=C\c1ccccc1
inactive: 786-0 > 100 µM | CAKI-1 > 100 µM | DU-145 > 100 µM | HCT-116 > 100 µM | HOP-62 > 100 µM | HOP-92 > 100 µM | Hs-578T > 100 µM | K562 > 100 µM | MCF7 > 100 µM | SK-MEL-2 > 100 µM | SK-MEL-5 > 100 µM | SK-OV-3 > 100 µM | SN12C > 100 µM | SNB-19 > 100 µM | TK-10 > 100 µM | U-251 > 100 µM | UACC-257 > 100 µM | UACC-62 > 100 µM

CC(C)CC(NC(=O)C(CCI)Cc1ccccc1)C(=O)Nc1ccccc1 (stereo not drawn)
inactive: 786-0 > 100 µM | CAKI-1 > 100 µM | DU-145 > 100 µM | HCT-116 43.4 µM | HOP-92 > 100 µM | K562 44.6 µM | MCF7 39.7 µM | MDA-N > 100 µM | SK-MEL-2 > 100 µM | SK-MEL-5 55.3 µM | SK-OV-3 > 100 µM | SN12C > 100 µM | SNB-19 98.2 µM | SR 22.8 µM | TK-10 88.7 µM | U-251 > 100 µM | UACC-257 > 100 µM | UACC-62 > 100 µM

CN1CCN=C1c1nnn(-c2ccc([N+](=O)[O-])cc2)c1-c1ccccc1
inactive: 786-0 > 100 µM | CAKI-1 > 100 µM | HCT-116 > 100 µM | HOP-62 > 100 µM | HOP-92 13.6 µM | K562 33.7 µM | SK-MEL-2 > 100 µM | SK-MEL-5 > 100 µM | SK-OV-3 > 100 µM | SN12C > 100 µM | SNB-19 > 100 µM | SR > 100 µM | TK-10 > 100 µM | U-251 94.6 µM | UACC-257 > 100 µM | UACC-62 > 100 µM
